Measured values from PMC5381274 (FEBS letters, 2016).

How the values were obtained:
K562 cells = assay: JC1 BH3 profiling, K562; assay type: cell-based; conditions: Figure 4B
NCI H929 cells = assay: JC1 BH3 profiling, NCI H929; assay type: cell-based; conditions: Figure 4A

## CC[C@H](C)[C@H](NC(=O)[C@H](CCC(=O)O)NC(=O)[C@H](CC(=O)O)NC(=O)CNC(=O)[C@H](CC(C)C)NC(=O)[C@H](CCCNC(=N)N)NC(=O)[C@H](CCCNC(=N)N)NC(=O)[C@H](CC(C)C)NC(=O)CNC(=O)[C@H](CCC(N)=O)NC(=O)[C@@H](NC(=O)[C@H](CCSC)NC(=O)[C@H](Cc1c[nH]c2ccccc12)NC(=O)[C@@H](NC(=O)[C@H](CCC(=O)O)NC(=O)[C@@H]1CCCN1C(=O)[C@H](CCCNC(=N)N)NC(C)=O)[C@@H](C)CC)[C@@H](C)O)C(=O)N[C@@H](CC(N)=O)C(=O)N[C@@H](C)C(=O)N[C@@H](Cc1ccc(O)cc1)C(=O)N[C@@H](Cc1ccc(O)cc1)C(=O)N[C@@H](C)C(=O)N[C@@H](CCCNC(=N)N)C(N)=O [MS-1]
K562 cells
  Mitochondrial depolarization in K562 (BH3 profiling): insensitive
NCI H929 cells
  Mitochondrial depolarization in NCI H929 (BH3 profiling): mitochondrial depolarization was observed

## Ac-WSSAAQLTAARLKALGDELHQ-NH2 [HRK]
NCI H929 cells
  Mitochondrial depolarization in NCI H929 (BH3 profiling): not affected

## CSCC[C@H](NC(=O)[C@H](CCCNC(=N)N)NC(=O)[C@H](CCCNC(=N)N)NC(=O)[C@H](CC(C)C)NC(=O)[C@H](CCC(=O)O)NC(=O)[C@H](CCCNC(=N)N)NC(=O)CNC(=O)[C@H](Cc1ccc(O)cc1)NC(=O)[C@H](CCCNC(=N)N)NC(=O)[C@H](CCC(N)=O)NC(=O)[C@H](C)NC(=O)[C@H](C)NC(=O)[C@H](Cc1c[nH]c2ccccc12)NC(=O)[C@H](CC(C)C)NC(C)=O)C(=O)N[C@@H](CO)C(=O)N[C@@H](CC(=O)O)C(=O)N[C@@H](CCC(=O)O)C(=O)N[C@@H](Cc1ccccc1)C(=O)N[C@@H](CCC(=O)O)C(=O)NCC(=O)N[C@@H](CO)C(=O)N[C@@H](Cc1ccccc1)C(=O)N[C@@H](CCCCN)C(=O)NCC(=O)N[C@@H](CC(C)C)C(N)=O [Bad]
NCI H929 cells
  Mitochondrial depolarization in NCI H929 (BH3 profiling): not affected
